Series [1] is described as follows: Stability of the peptide to plasma proteases (3 hrs. incubation in PRP before agonist). The series is classed as in vitro ADME, dog. The note with it: peptide incubated 3 hrs. in PRP prior to addition of agonist. On the procedure: (§1) Blood was collected (citrated to prevent coagulation) from, naive, adult mongrel dogs. Platelet rich plasma, PRP, was prepared by centrifugation at 150×g for 10 min. at room temperature. Washed platelets were prepared by centrifuging PRP at 800×g for 10 min. The cell pellet thus obtained was washed twice in Tyrode's buffer (pH 6.5) without Ca^2+ and resuspended in Tyrode's buffer (pH 7.4) containing 1.8 mM Ca^2+ at […]. Peptides were added 3 min. prior to the agonist in all assays of platelet aggregation. Final agonist concentrations were 0.1 unit/ml thrombin and 2 μM ADP (Sigma). Aggregation was monitored in a Chrono-Log Lumi-Aggregometer. Light transmittance 5 min. after addition of the agonist was used to calculate percent aggregation according to the formula % aggregation=[(90-CR).div.(90-10)]×100, where CR is the chart reading, 90 is the baseline, and 10 is the PRP blank reading. IC50 's were determined by plotting [% inhibition of aggregation] vs. [concentration of peptide]. Peptides were assayed at 200 μM and diluted sequentially by a factor of 2 to establish a suitable dose response curve.
To assess the stability of the peptide to plasma proteases, the peptides were incubated for 3 hrs. (rather than 3 min.) in the PRP prior to addition of the agonist.

For series [2], the system named is platelet aggregation/thrombus formation. Briefly: In vivo inhibition of thrombus formation, coronary thrombosis model in anesthetized dogs. Also noted: species or system dog. On the procedure:
Briefly, a small Lexan® cylinder is placed around a mechanically damaged left circumflex coronary artery to produce a fixed partial obstruction of 80-90%. Under these conditions, platelets adhere to the exposed subendothelial collagen and aggregate at the obstructed site. Aggregation is assessed as a gradual reduction in blood flow over 2-3 min. until the thrombus is mechanically dislodged from the lumen of the obstructed vessel and coronary blood flow is restored. This process is allowed to repeat itself every 2-3 min. through the control period of the experiment.

Another series relates to preformed human clot. Description: Human clot lysis assay (tPA induced fibrinolysis). The series is classed as biochemical. On the procedure:
The human clot lysis assay is used to assess the in vitro effect of anti-fibrotic peptide on tPA induced fibrinolysis. Outdated, citrated, human plasma from the American Red Cross is spun for 20 min. at 1300X g to remove remaining blood cells. A solution consisting of plasma, ^125 I-fibrinogen, calcium chloride and thrombin is added to 6 mm tissue culture plates and incubated 15 to 18 hrs. at 37° C. The next morning, each well is rinsed to release the clot. Clots are washed twice with Tris-buffered saline, containing heparin and albumin. Each clot is then added to 1.0 ml of the same plasma used to prepare the clot. tPA is added to tubes over a concentration range of 7 to 250 ng/ml (final concentration). Tubes are incubated at 37° C. with gentle rotation for 4 hrs. At the end of 4 hrs., a 25 μl aliquot is removed and counted to measure ^125 I released from the clot. All samples are run in triplicate.

For series [3], the target named is T1, Platelet rich plasma, PRP (Canis lupus familiaris, UniProt A0A8I3N5G5+A0A8I3PMU9).
T1 sequence (A0A8I3N5G5 1-1047): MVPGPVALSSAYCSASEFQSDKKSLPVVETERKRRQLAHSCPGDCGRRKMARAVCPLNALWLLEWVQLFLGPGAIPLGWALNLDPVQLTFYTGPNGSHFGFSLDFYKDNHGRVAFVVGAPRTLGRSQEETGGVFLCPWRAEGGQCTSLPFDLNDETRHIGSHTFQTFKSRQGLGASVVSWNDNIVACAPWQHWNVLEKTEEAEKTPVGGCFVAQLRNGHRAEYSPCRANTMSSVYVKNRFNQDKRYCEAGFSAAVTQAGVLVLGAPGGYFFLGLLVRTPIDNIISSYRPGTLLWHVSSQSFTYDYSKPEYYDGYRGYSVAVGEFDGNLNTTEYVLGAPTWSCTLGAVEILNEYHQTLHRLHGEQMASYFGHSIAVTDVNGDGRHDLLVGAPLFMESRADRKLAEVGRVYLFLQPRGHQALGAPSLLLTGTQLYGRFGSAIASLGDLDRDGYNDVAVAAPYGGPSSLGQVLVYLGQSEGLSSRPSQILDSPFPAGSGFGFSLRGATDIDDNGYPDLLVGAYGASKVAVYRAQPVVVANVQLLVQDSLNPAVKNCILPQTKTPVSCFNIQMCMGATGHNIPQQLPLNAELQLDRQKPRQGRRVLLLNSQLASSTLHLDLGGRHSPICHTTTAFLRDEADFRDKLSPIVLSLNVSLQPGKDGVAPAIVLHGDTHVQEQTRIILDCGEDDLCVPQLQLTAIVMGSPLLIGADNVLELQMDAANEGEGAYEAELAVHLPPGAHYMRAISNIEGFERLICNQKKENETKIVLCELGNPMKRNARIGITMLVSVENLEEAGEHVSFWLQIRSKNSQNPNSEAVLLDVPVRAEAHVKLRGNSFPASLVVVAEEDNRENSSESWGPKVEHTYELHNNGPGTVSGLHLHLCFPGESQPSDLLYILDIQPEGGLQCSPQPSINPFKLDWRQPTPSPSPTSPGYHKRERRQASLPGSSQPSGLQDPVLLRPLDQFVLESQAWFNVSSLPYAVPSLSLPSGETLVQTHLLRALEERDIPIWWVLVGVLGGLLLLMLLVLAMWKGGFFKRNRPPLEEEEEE
T1 sequence (A0A8I3PMU9 1-919): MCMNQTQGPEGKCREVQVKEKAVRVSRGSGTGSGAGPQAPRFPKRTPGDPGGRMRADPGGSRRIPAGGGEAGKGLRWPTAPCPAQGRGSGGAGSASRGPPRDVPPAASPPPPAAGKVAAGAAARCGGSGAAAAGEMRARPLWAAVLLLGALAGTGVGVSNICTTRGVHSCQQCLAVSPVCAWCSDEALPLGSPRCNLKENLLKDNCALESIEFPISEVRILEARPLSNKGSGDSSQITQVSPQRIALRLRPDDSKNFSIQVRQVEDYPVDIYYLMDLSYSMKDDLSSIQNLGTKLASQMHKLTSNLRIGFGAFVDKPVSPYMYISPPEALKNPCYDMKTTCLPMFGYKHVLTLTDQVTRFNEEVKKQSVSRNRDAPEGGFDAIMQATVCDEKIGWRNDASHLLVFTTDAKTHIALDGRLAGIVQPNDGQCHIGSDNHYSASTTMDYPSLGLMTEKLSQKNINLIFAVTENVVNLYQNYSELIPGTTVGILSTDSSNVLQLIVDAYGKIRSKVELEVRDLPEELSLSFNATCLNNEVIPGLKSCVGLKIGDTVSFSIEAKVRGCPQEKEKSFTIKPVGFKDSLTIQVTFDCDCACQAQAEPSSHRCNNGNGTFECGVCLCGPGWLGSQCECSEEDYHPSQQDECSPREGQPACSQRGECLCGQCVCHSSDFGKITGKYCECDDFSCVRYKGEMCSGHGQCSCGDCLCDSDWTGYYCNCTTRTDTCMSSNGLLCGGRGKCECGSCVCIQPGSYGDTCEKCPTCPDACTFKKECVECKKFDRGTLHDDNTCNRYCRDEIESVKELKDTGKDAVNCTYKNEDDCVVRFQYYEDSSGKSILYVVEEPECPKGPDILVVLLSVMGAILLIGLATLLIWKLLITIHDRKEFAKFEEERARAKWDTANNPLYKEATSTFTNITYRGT
Description: Inhibition of platelet aggregation, PRP/ADP. The note with it: dog platelet rich plasma, 2 μM ADP, peptide added 3 min. prior to agonist; read-out: Antiaggregatory Activity IC50, μM PRP/ADP. The series is classed as cell-based. As for the experimental part: as §1

A further series has as its target T2, Washed platelets (Canis lupus familiaris, UniProt A0A8I3N5G5+A0A8I3PMU9).
T2 sequence (A0A8I3N5G5 1-1047): T1 sequence (A0A8I3N5G5 1-1047)
T2 sequence (A0A8I3PMU9 1-919): T1 sequence (A0A8I3PMU9 1-919)
Briefly: Inhibition of platelet aggregation, WP/Thrombin. To be noted: dog washed platelets, 0.1 unit/ml thrombin, peptide added 3 min. prior to agonist; read-out: Antiaggregatory Activity IC50, μM WP/Thrombin. The class given is cell-based. On the procedure:
as §1

“Also recorded” adds a separate entry of the source. Residues, ends and D or L forms follow the SMILES beside them.

We go through twelve compounds from US5849690A, “Anti-aggregatory peptides” (SmithKline Beecham Corporation, priority 1992, dated 1998).

Consider `CC(=O)N[C@@H](CCCN=C(N)N)C(=O)NCC(=O)N[C@@H](CC(=O)O)C(=O)N[C@@H](CO)C(N)=O` [Example 27, N^α -Ac-Arg-Gly-Asp-Ser-NH2] (Ac-RGDS-NH2), for which, in series [1], the “% Activity after 3 hr. in PRP” value is given as 0%. Besides, the “effect of infusion upon coronary arterial blood pressure” value in series [2] (400 mM at 0.1 ml/min) was “no effect”.

Regarding `CC(=O)N[C@@H](CCCNC(=N)N)C(=O)NCC(=O)N[C@@H](CC(=O)O)C(=O)N[C@@H](CO)C(N)=O` [Example 27, N^α -Ac-Arg-Gly-Asp-Ser-NH2] (Ac-RGDS-NH2), the “effect upon tPA promoted human clot lysis in vitro” value in the series with preformed human clot (1 mM peptide, listed as Ac-RGDS-NH2) is recorded as “no interaction; also recorded: no effect”. Also, the “inhibition of thrombus formation (mean coronary blood flow)” value in series [2] (400 mM at 0.013 ml/min.) is listed as “partial inhibition with prolongation of time to complete blockage”; in series [2] (400 mM at 0.026 ml/min. infusion, listed as Ac-RGDS-NH2), “moderate inhibition with spontaneous sloughing off of the thrombus; also recorded: moderate inhibition with spontaneous sloughing off of thrombi”; in series [2] (400 mM at 0.052 ml/min. infusion rate) it was “complete inhibition of thrombus formation”. The “inhibition of thrombus formation (coronary blood flow)” value in series [2] (coronary infusion 400 mM at 0.1 ml/min, listed as Ac-RGDS-NH2) is “complete inhibition of thrombus formation”.

On to `CC(=O)N[C@@H](CCCN=C(N)N)C(=O)NCC(=O)N[C@@H](CC(=O)O)C(N)=O` [Example 29, N^α -Ac-Arg-Gly-Asp-NH2], for which the IC50 in series [3] was 138 µM; at Washed platelets, 356 µM.

In the case of `CC(=O)N[C@@H](CCCNC(=N)N)C(=O)NCC(=O)N[C@@H](CC(=O)O)C(=O)N[C@@H](Cc1ccc2ccccc2c1)C(N)=O` [Example 32, N^α -Ac-Arg-Gly-Asp-Nal-NH2] (HELM PEPTIDE1{[ac].R.G.D.[O=C([C@H](Cc1ccc2ccccc2c1)N[*:1])[*:2]].[am]}$$$$V2.0), the IC50 in series [3] is 40.5 µM. Further, in series [1], the “% Activity after 3 hr. in PRP” value is listed as 100%.

`CC(=O)N(C)[C@@H](CCCNC(=N)N)C(=O)NCC(=O)N[C@@H](CC(=O)O)C(=O)N[C@@H](Cc1ccccc1)C(N)=O` [Example 35, N^α -Ac-MeArg-Gly-Asp-Phe-NH2] (HELM PEPTIDE1{[ac].[meR].G.D.F.[am]}$$$$V2.0): the IC50 in series [3] stood at 10.8 µM. Besides, the “% Activity after 3 hr. in PRP” value in series [1] is reported as 100%.

Consider `CC(=O)N(C)[C@@H](CCCNC(=N)N)C(=O)NCC(=O)N[C@@H](CC(=O)O)C(=O)N[C@@H](CO)C(N)=O` [Example 26, N^α -Ac-N a-MeArg-Gly-Asp-Ser-NH2] (HELM PEPTIDE1{[ac].[meR].G.D.S.[am]}$$$$V2.0), for which the IC50 in series [3] was determined as 7.4 µM; on Washed platelets, 28.2 µM. For the same compound, the “% Activity after 3 hr. in PRP” value in series [1] turned out to be 100%.

Regarding `CC(=O)N[C@H]1CSSC[C@@H](C(N)=O)NC(=O)[C@H](CO)NC(=O)[C@H](CC(=O)O)NC(=O)CNC(=O)[C@H](CCCN=C(N)N)NC1=O` [Example 3, N^α -Ac-Cyclo(S,S) Cys-Arg-Gly-Asp-Ser-Cys-NH2] (HELM PEPTIDE1{[ac].C.R.G.D.S.C.[am]}$PEPTIDE1,PEPTIDE1,2:R3-7:R3$$$V2.0), the IC50 on Washed platelets was 54.3 µM.

Take `CC(=O)N[C@H]1CSSC[C@@H](C(N)=O)NC(=O)[C@H](CO)NC(=O)[C@H](CC(=O)O)NC(=O)CNC(=O)[C@H](CCCNC(=N)N)N(C)C1=O` [Example 1, N^α -Ac-Cyclo(S,S) Cys-MeArg-Gly-Asp-Ser-Cys-NH2] (HELM PEPTIDE1{[ac].C.[meR].G.D.S.C.[am]}$PEPTIDE1,PEPTIDE1,2:R3-7:R3$$$V2.0): the IC50 in series [3] came to 1.1 µM. In addition, the “% Activity after 3 hr. in PRP” value in series [1] amounted to 100%.

On to “N^α -Ac-Arg-Gly-Asp-Tyr-NH2 [Example 28]”, for which the IC50 in series [3] came to 102 µM; at Washed platelets it was 137 µM. In addition, the “% Activity after 3 hr. in PRP” value in series [1] turned out to be 98%.

“tPA(MT2N3): tissue plasminogen activator (tPA), fibrinolytic agent used to induce clot lysis”: in the series with preformed human clot (% clot lysis at 4 hours, tPA alone), the “EC50 of tPA-induced clot lysis, control period” value turned out to be 31.5 ± 9.9 µg/mL.

Consider `CC(=O)N[C@H]1CSSC[C@@H](C(N)=O)NC(=O)[C@H](Cc2ccc(O)cc2)NC(=O)[C@H](CC(=O)O)NC(=O)CNC(=O)[C@H](CCCNC(=N)N)N(C)C1=O` [Example 18, N^α -Ac-Cyclo(S,S)Cys-MeArg-Gly-Asp-Tyr-Cys-NH2] (HELM PEPTIDE1{[ac].C.[meR].G.D.Y.C.[am]}$PEPTIDE1,PEPTIDE1,2:R3-7:R3$$$V2.0), for which the IC50 in series [3] amounted to 1.49 µM.

With `CC(=O)N[C@H]1CSSC2(CCCCC2)C(C(N)=O)NC(=O)[C@H](CC(=O)O)NC(=O)CNC(=O)[C@H](CCCNC(=N)N)NC1=O` (stereo partly drawn) [Example 2, N^α -Ac-Cyclo(S,S) Cys-Arg-Gly-Asp-(D,L) APmp-NH2] (HELM PEPTIDE1{[ac].C.R.G.D.[O=C(C(N[*:1])C1(S[*:3])CCCCC1)[*:2]].[am]}$PEPTIDE1,PEPTIDE1,2:R3-6:R3$$$V2.0), in series [3], the IC50 was 1.53 µM. For the same compound, in series [1], the “% Activity after 3 hr. in PRP” value was 100%.
